Results as given in patent publication US6410594B1, “Substituted cyclopentane compounds useful as neuraminidase inhibitors” (Biocryst Pharmaceuticals, Inc., priority 1996, dated 2002).
Counter-ions that a name gives are not always drawn.

System: not given
Test: not given
Conditions: not given
Work on `CC(=O)NC(COCc1ccccc1)[C@H]1C[C@@](O)(C(=O)O)C[C@@H]1N` (stereo partly drawn) (as salt: ammonium) yielded a melting point of 37 to 39 °C.
For `CC(=O)NC(CO)[C@H]1C[C@@](O)(C(=O)O)C[C@@H]1N` (stereo partly drawn) (as salt: ammonium), the melting point was 83 to 85 °C.
Molecule `CCC=CC(NC(C)=O)[C@H]1CC(C(=O)O)C[C@@H]1NC(=N)N` (stereo partly drawn) (as salt: salt) has a melting point of 62 to 64 °C.
For `CON(C)CCC(=O)C(NC(C)=O)[C@H]1CC(C(=O)O)C[C@@H]1NC(=N)N` (stereo partly drawn) (as salt: salt) [Example 20], the melting point was 189 to 192 °C.
With `CCCN(CCC)C(=O)C(NC(C)=O)[C@H]1C[C@@](O)(C(=O)O)C[C@@H]1NC(=N)N` (stereo partly drawn) (as salt: salt) [Example 23, t-3-{[(Amino)(imino)methyl]amino}-c-4-[(di-n-propylaminocarbonyl)(methylcarbonylamino)-methyl]-t-hydroxycyclpentan-r-carboxylic acid trifluoroacetic acid (4:5)] the melting point was 153 to 155 °C.
For `CC(=O)NC(C(O)C(O)CO)[C@H]1CC(C(=O)O)C[C@@H]1N` (single isomer, unassigned) (as salt: salt), the melting point was 58 to 62 °C.
Work on `CCCN(CCC)C(=O)C(NC(C)=O)[C@H]1C[C@@](O)(C(=O)O)C[C@@H]1N` (single isomer, unassigned) (as salt: salt) yielded a melting point of 168 to 170 °C.
In the case of `CCN(CC)C(=O)C(NC(C)=O)[C@H]1C[C@@H](C(=O)O)C[C@@H]1NC(=N)N` (single isomer, unassigned) (as salt: trifluoroacetic acid salt), the melting point is reported as > 110 °C (dec.).
For `CC(=O)NC(C(O)C(O)CO)[C@H]1CC(C(=O)O)C[C@@H]1NC(=N)N` (single isomer, unassigned; isomer a) (as salt: salt) [Example 12, 3β-{[(Amino)(imino)methyl]amino}-4α-[(1-methylcarbonylamino) (2,3,4-trihydroxy)butyl)butyl]-cyclonentancarboxylic acid trifluoroacetic acid (1:2) (isomer A at C-1, isomer A at C-6, isomer B at C-7)], the melting point was 76 to 80 °C.
For `CC(=O)NC(COC(=O)C(F)(F)F)[C@H]1C[C@](O)(C(=O)O)C[C@@H]1NC(=N)N` (single isomer, unassigned; isomer a) (as salt: salt) [Example 16, c-3-{[(Amino)(imino)methyl]amino}-t-1-hydroxy-t-4-[(1-methylcarbonylamino)(2-trifluoromethyl-carbonyloxy)ethyl]cyclopentan-r-carboxylic acid trifluoroacetic acid (4:1) (isomer A at C-6)], the melting point was 148 to 160 °C.
Work on `CC(=O)NC(C(O)C(O)CO)[C@H]1CC(C(=O)O)C[C@@H]1NC(=N)N` (single isomer, unassigned; isomer b) (as salt: salt) [Example 13, 3β-{[(Amino)(imino)methyl]amino}-4α-[(1-methylcarbonylamino)(2,3,4-trihydroxy)butyl]-cyclopentancarboxylic acid trifluoroacetic acid (1:2) (isomer B at C-1, isomer A at C-6, isomer B at C-7)] yielded a melting point of 124 to 128 °C.
In the case of `CC(=O)NC(C(O)C(O)CO)[C@H]1CC(C(=O)O)C[C@@H]1NC(=N)N` (single isomer, unassigned; isomer b) (as salt: salt) [Example 14, 3β-{[(Amino)(imino)methyl]amino}-4α-[(1-methylcarbonylamino)(2,3,4-trihydroxy)butyl]cyclo-pentancarboxylic acid trifluoroacetic acid (4:9) (isomer B at C-6, isomer A at C-1, C-7 and/or C-8)], the melting point is reported as 125 to 135 °C.
`CC(=O)NC(C(O)C(O)CO)[C@H]1CC(C(=O)O)C[C@@H]1NC(=N)N` (single isomer, unassigned; isomer b) (as salt: salt) [Example 15, 3β-{[(Amino)(imino)methyl]amino}-4α-[(1-methylcarbonylamino)(2,3,4-trihydroxy)butyl]cyclo-pentancarboxylic acid trifluoroacetic acid (5:13) (isomer B at C-6, isomer B at C-1, C-7 and/or C-8)] gave a melting point of 140 to 145 °C.
Work on `CC(=O)NC(COC(=O)C(F)(F)F)[C@H]1C[C@](O)(C(=O)O)C[C@@H]1NC(=N)N` (single isomer, unassigned; isomer b) (as salt: salt) [Example 17, c-3-{[(Amino)(imino)methyl]amino}-t-1-hydroxy-t-4-[(1-methylcarbonylamino)(2-trifluoromethyl-carbonyloxy)ethyl]cyclopentan-r-carboxylic acid trifluoroacetic acid (4:3) (isomer B at C-6)] yielded a melting point of 210 to 220 °C.
In the case of `CC(=O)NC(CO)[C@H]1CC(C(=O)[O-])C[C@@H]1NC(=N)N.[Na+]` (single isomer, unassigned; isomer b) (hydrate or solvate) [Example 7, Sodium 3β-{[(amino)(imino)methyl]amino}-4α-[(2-hydroxy)(1-methylcarbonylamino)ethyl]-cyclopentan-r-carboxylate:diethylether:hydrate (12:4:3), isomer B], the melting point is reported as 65 °C.

Target: H1N9 Influenza Neuraminidase (Influenza A virus, UniProt P03472)
Sequence (P03472 83-470 limits assumed): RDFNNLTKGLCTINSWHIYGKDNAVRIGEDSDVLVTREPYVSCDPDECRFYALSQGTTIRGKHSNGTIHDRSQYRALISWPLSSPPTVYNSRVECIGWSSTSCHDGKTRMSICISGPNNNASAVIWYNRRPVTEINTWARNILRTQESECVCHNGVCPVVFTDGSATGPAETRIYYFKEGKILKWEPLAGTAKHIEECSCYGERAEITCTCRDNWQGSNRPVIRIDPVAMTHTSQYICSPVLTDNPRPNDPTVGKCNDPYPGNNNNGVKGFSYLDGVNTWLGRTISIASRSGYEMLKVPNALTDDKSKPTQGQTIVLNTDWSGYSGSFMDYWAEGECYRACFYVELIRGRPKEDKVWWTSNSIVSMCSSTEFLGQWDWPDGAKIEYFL
Test: biochemical
Parameters: species or system influenza virus (H1N9 strain)
Conditions: 10 min at 37° C.; read-out: Inhibition of H1N9 Influenza Neuraminidase IC50
In the case of `CC(=O)NC[C@@H]1C[C@H](C(=O)O)C[C@H]1NC(=N)N` (relative stereo) [Example 3, t-3-{[(Amino)(imino)methyl]amino}-c-4-[(methylcarbonylamino)methyl]-cyclopentan-r-carboxylic acid trifluoroacetic acid [1:1.25]], the IC50 is reported as 115 µM.
In the case of `N=C(N)NC[C@@H]1C[C@H](C(=O)O)C[C@H]1NC(=N)N` (relative stereo) [Example 5, t-3-{[(Amino)(imino)methyl]amino}-c-4-{{[(amino)(imino)methyl]amino}methyl}cyclopentan-r-carboxylic acid dihydrochloride hydrate 2-propanol (5:10:5:2)], the IC50 is reported as 280 µM.
`CC(=O)NC(CO)[C@H]1C[C@@](O)(C(=O)O)C[C@@H]1NC(=N)N` (single isomer, unassigned; isomer a) [Example 9, t-3-{[(Amino)(imino)methyl]amino}-t-1-hydroxy-c-4-[(2-hydroxymethyl)(1-methylcarbonyl-amino)ethyl]cyclopentan-r-carboxylic acid trifluoroacetic acid diethyl ether [20:15:2] (isomer A at C-6)] gave an IC50 of 600 µM.
`CC(=O)NC(C(O)C(O)CO)[C@H]1CC(C(=O)O)C[C@@H]1N` (single isomer, unassigned; isomer a) [Example 10, 3β-amino-4α-[(1-methylcarbonylamino)(2,3,4-trihydroxy)butyl]cyclopentancarboxylic acid trifluoroacetic acid (1:1) (isomer A at C-6)] showed an IC50 of 600 µM.
In the case of `CC(=O)NC(C(O)C(O)CO)[C@H]1CC(C(=O)O)C[C@@H]1NC(=N)N` (single isomer, unassigned; isomer a) [Example 12, 3β-{[(Amino)(imino)methyl]amino}-4α-[(1-methylcarbonylamino) (2,3,4-trihydroxy)butyl)butyl]-cyclonentancarboxylic acid trifluoroacetic acid (1:2) (isomer A at C-1, isomer A at C-6, isomer B at C-7)], the IC50 is reported as 7.5 µM.
In the case of `CC(=O)NC(COC(=O)C(F)(F)F)[C@H]1C[C@](O)(C(=O)O)C[C@@H]1NC(=N)N` (single isomer, unassigned; isomer a) [Example 16, c-3-{[(Amino)(imino)methyl]amino}-t-1-hydroxy-t-4-[(1-methylcarbonylamino)(2-trifluoromethyl-carbonyloxy)ethyl]cyclopentan-r-carboxylic acid trifluoroacetic acid (4:1) (isomer A at C-6)], the IC50 is reported as 70 µM.
`CC(=O)NC(CO)[C@H]1CC(C(=O)O)C[C@@H]1NC(=N)N` (single isomer, unassigned; isomer b) [Example 7, Sodium 3β-{[(amino)(imino)methyl]amino}-4α-[(2-hydroxy)(1-methylcarbonylamino)ethyl]-cyclopentan-r-carboxylate:diethylether:hydrate (12:4:3), isomer B] showed an IC50 of 3800 µM.
For `CC(=O)NC(C(O)C(O)CO)[C@H]1CC(C(=O)O)C[C@@H]1NC(=N)N` (single isomer, unassigned; isomer b) [Example 13, 3β-{[(Amino)(imino)methyl]amino}-4α-[(1-methylcarbonylamino)(2,3,4-trihydroxy)butyl]-cyclopentancarboxylic acid trifluoroacetic acid (1:2) (isomer B at C-1, isomer A at C-6, isomer B at C-7)], the IC50 was 4.3 µM.
With `CC(=O)NC(C(O)C(O)CO)[C@H]1CC(C(=O)O)C[C@@H]1NC(=N)N` (single isomer, unassigned; isomer b) [Example 14, 3β-{[(Amino)(imino)methyl]amino}-4α-[(1-methylcarbonylamino)(2,3,4-trihydroxy)butyl]cyclo-pentancarboxylic acid trifluoroacetic acid (4:9) (isomer B at C-6, isomer A at C-1, C-7 and/or C-8)] the IC50 was 40 µM.
For `CC(=O)NC(C(O)C(O)CO)[C@H]1CC(C(=O)O)C[C@@H]1NC(=N)N` (single isomer, unassigned; isomer b) [Example 15, 3β-{[(Amino)(imino)methyl]amino}-4α-[(1-methylcarbonylamino)(2,3,4-trihydroxy)butyl]cyclo-pentancarboxylic acid trifluoroacetic acid (5:13) (isomer B at C-6, isomer B at C-1, C-7 and/or C-8)], the IC50 was 50 µM.
Molecule `CC(=O)NC(COC(=O)C(F)(F)F)[C@H]1C[C@](O)(C(=O)O)C[C@@H]1NC(=N)N` (single isomer, unassigned; isomer b) [Example 17, c-3-{[(Amino)(imino)methyl]amino}-t-1-hydroxy-t-4-[(1-methylcarbonylamino)(2-trifluoromethyl-carbonyloxy)ethyl]cyclopentan-r-carboxylic acid trifluoroacetic acid (4:3) (isomer B at C-6)] has an IC50 of 2000 µM.
In the case of `CON(C)CCC(=O)C(NC(C)=O)[C@H]1CC(C(=O)O)C[C@@H]1NC(=N)N` (stereo partly drawn) [Example 20], the IC50 is reported as 8 µM.
